# Measurements as given in US20100324079A1, “Medicament for prophylaxis and treatment of Alzheimer disease” (priority 2006, published 2010).
# “Also recorded” adds a separate entry of the source. Counter-ions that a name gives are not always drawn. Peptide text beside a SMILES is read from it. * marks the point of attachment. Cbz = O=C(OCc1ccccc1)*
# How the values were obtained:
# [1] = tested on: intracellularly accumulated Aβ42; assay: Degradation of intracellularly accumulated Aβ42 in SH-SY5Y cells (immunoblot); assay type: cell-based
# Description: (§1) In order to investigate a compound that inhibits intracellular aggregation and accumulation of amyloid β proteins based on activation of intracellular proteasome, a system was constructed for assaying an activity to degrade intracellularly accumulated Aβ. Neuroblastoma cells (SH-SY5Y; ATCC) were used as culture cells and Aβ40 was artificially accumulated within the cells. […] If the activity to degrade Aβ40 was high, the activity to degrade Aβ42 was analogously thought to be high. For introducing amyloid β proteins within cells, hypertonicity influx method was used. Briefly, using Influx™ Pinocytic Cell-loading Reagent (Molecular Probe), SH-SY5Y cells (1×10^6 cells) were exposed to Aβ40 (about 200 μg; ANASPEC) with hypertonicity for 10 minutes/hypotonicity for 2 minutes so that Aβ40 peptides may be incorporated into cells via pinocytosis and spread pervasively in cytoplasm. After accumulation of Aβ40 within cells, degradation of Aβ with lapse of time was observed. […] These reagents were added to culture two hours before Aβ40 accumulation to investigate their activity.
# (§2) Zero minute and thirty minutes after Aβ40 treatment, cells were collected and subjected to immunoblot. Immunoblot was performed as commonly known in the art wherein soluble proteins were extracted from cells with 2% SDS, run on Tris/Tricine gel SDS-PAGE, transblotted to PVDF membrane (Semi-dry method) and detected with an anti-Aβ antibody (4G8, Signet Pathology Systems). Quantitative evaluation was done by quantitatively evaluating the immune reaction of amyloid β proteins. Quantitative evaluation was performed by taking in the photos with Photoshop and measuring density of bands with NIH Image. […] Thus, it was considered that intracellularly accumulated Aβ40 were degraded by proteasome and that APO may enhance the degrading process.
# As described in Example 1(1) and (2), degradation of intracellularly accumulated Aβ was assayed for Aβ42 provided that cells were collected 0 minute and 90 minutes after Aβ42 treatment and subjected to immunoblot.
# 3×Tg mouse [2] = assay: Preventive effect to onset of AD, Morris water maze test in homozygous 3×Tg mice; assay type: in vivo; details: weekly 5 mg/kg from 3 months old up till 6 months old, hydrochloride
# Experimental: For investigating whether APO administration may prevent onset of AD, the effect of weekly administration of 5 mg/kg of APO before onset was studied. The recognition function and the pathological change in 3×Tg mice may widely vary from individual to individual and thus still much more data would be necessary for obtaining a definite conclusion.
# 3×Tg mouse [3] = assay: Morris water maze test in heterozygous 3×Tg mice; assay type: in vivo
# Experimental: 3×Tg mouse is a model mouse of Alzheimer disease (AD) developed by Oddo and LaFerla et al. at University of California, Irvine. It is a mouse having three potent causes of disease wherein a gene of an amyloid precursor protein (APP) with KM670/671NL mutation, which is a gene causative of Swedish familial AD, and a gene of a tau protein (Tau) with P301L mutation, which is one of genes causative of familial frontotemporal dementia (FTD), are incorporated into a knock-in mouse of presenilin-1 (PS1) gene with M146V mutation causative of familial AD. […] It is also reported that the memory function of 3×Tg mouse is recovered when amyloid β proteins accumulated within neurons are decreased but defects in memory relapse if amyloid β proteins become accumulated (Billings L M et al., Neuron 45: 675-688, 2005). Thus, 3×Tg mouse is a model mouse of disease highly suitable for investigating efficacy of a medicament which targets intracellularly accumulated amyloid β proteins.
# For investigating efficacy of apomorphine (APO) hydrochloride administered in vivo, APO was subcutaneously injected to 3×Tg. APO was purchased from Sigma Co. To heterozygous 3×Tg (6 month old; 4 mice in each group) generated from crossbreeding of a normal mouse and a Tg mouse, each 5 mg/kg of saline or APO was subcutaneously injected weekly for 4 weeks. The animals underwent analysis by Morris water maze test to evaluate the capacity of space memory before injection and after completion of four injections.
# For quantitatively evaluating the capacity of space memory relating to the memory function of the hippocampus, Morris water maze test was performed. An analytical instrument used was DV-Track Video Tracking System (Muromachi Kikai Co., Ltd.). For Morris water maze, a round-shaped pool with a diameter of 1 m is prepared and a transparent goal stand is set in an arbitrary position of the pool. The animals undergo swimming training repeatedly by starting at an arbitrary position for reaching the goal stand (FIG. 9, left panel). In case that the animals could not reach the goal stand within 60 seconds, the test is discontinued and the animals are put on the goal stand for them to memorize the position. This training is repeated four times a day for three consecutive days and as a consequence the animals come to memorize the position of the goal stand (FIG. 9, right panel). Forty eight hours after completion of learning with time for reaching the goal stand being 15 seconds or less, the animals were let to swim in the pool without the goal stand and three indexes for memory were: time lag (s) in reaching the position where the goal stand was originally placed, a frequency (n) of crossing the position as seeking for the goal stand, and residential time (%) within ¼ block of the position where the goal stand was originally placed (48-hour probe test).
# p53 = p53 Western blot analysis in hydrogen peroxide treated SH-SY5Y cells; assay type: cell-based; details: 0, 1, 3 mM hydrogen peroxide, after 24 hours
# Experimental: (§3) Further, in order to study p53 level and a rate of cell survival in cell damage induced by hydrogen peroxide, p53 Western blot analysis and survival rate assay using Cell Titer-Blue Assay Kit (Promega) were performed. Hydrogen peroxide treatment was done by adding an appropriate amount (0 mM, 1 mM, and 3 mM) of hydrogen peroxide to normal culture medium for SH-SY5Y cells supplemented with 10% serum as described above. After 24 hours, the increased p53 level by addition of hydrogen peroxide was inhibited by addition of APO (FIG. 4A). A rate of cell survival was also recovered by addition of APO.
# [4] = tested on: primary neurons from mouse fetus; assay: Protective effect in mouse primary neurons (cell survival, beta-tubulin immunostaining); assay type: cell-based
# Experimental: Primary neurons were taken from the brain of fetal mouse of 15 days old, separated by treatment with 0.03% trypsin and cultured in Neurobasal-A+B27 serum-free medium (Gibco). After stabilization by culture for about a week, the reagents were added and a rate of cell survival was measured.
# Further, the above mouse primary neurons were immunostained with an antibody to beta-tubulin, a cytoskeletal protein of the axon and a network of the neurite was observed (FIG. 8).
# [5] = tested on: intracellularly accumulated Aβ40; assay: Degradation of intracellularly accumulated Aβ40 in SH-SY5Y cells (immunoblot, confocal microscopy); assay type: cell-based; details: for degradation of intracellularly accumulated Aβ40 after 30 minutes: reagent added 2 hours before Aβ40 accumulation, immunoblot with 4G8
# Description: as §1, §2
# Aβ40 was incorporated into cells via pinocytosis as in (1) above.
# SH-SY5Y cells = assay: Cell death induced by hydrogen peroxide in SH-SY5Y cells (cell survival); assay type: cell-based; details: for rate of cell survival: hydrogen peroxide
# Experimental: A cell death inhibitory activity of apomorphine hydrochloride to cell death induced by hydrogen peroxide was studied. Hydrogen peroxide treatment was performed by adding an appropriate amount (0 mM, 1 mM, and 3 mM) of hydrogen peroxide to normal culture medium for SH-SY5Y cells supplemented with 10% serum and by investigating cell survival after 24 hours. The cells were fixed with methanol/acetone (50%/50%) for 10 minutes so that the conditions of surviving cells could easily be observed and then subjected to immunostaining with an anti-APP C-terminal antibody (Sigma-Aldrich) using Universal Kit (DAKO). As a result, cell death was induced by hydrogen peroxide (FIG. 3, upper panels). Then, the cells were treated with 10 μM APO together with 0 mM, 1 mM, and 3 mM of hydrogen peroxide.
# as §3
# 3×Tg mouse [6] = assay: Immunostaining of brain slices of 3×Tg mice (4G8, AT8); assay type: in vivo
# Description: In 3×Tg mouse, it is observed that defects in the recognition function and intracellularly accumulated amyloid β proteins are correlated to each other. For evaluating amyloid β proteins accumulated within neurons, 3×Tg mice used in Example 6 were sacrificed for pathological analysis. Immunostaining was done with an antibody specific to an amyloid β protein and an antibody specific to a phosphorylated tau protein, which is a major component of neurofibrillary tangle in the AD brain. After completion of Morris water maze test after APO injection, the mice were subjected to perfusion fixation with 4% paraformaldehyde. Then, the whole brain was taken out, fixed with 4% paraformaldehyde and was left to stand in 15% sucrose for 48 hours and in 30% sucrose for 48 hours at 4° C. A slice with 20 μm thickness cut from the forehead including the hippocampus was prepared. Immunostaining was performed with 4G8 (Signet Laboratories, 1:1000) for an anti-amyloid β protein antibody and AT8 (Innogenetics, 1:200) for an anti-phosphorylated tau protein antibody using mouse to mouse immunostaining kit (Zymed) for DAB staining.
# proteasome = assay: Proteasome activity in SH-SY5Y cells (20S Proteasome Assay Kit, Suc-LLVY-AMC); assay type: cell-based
# Experimental: As described in Example 2(1) and (2), a change in the protease activity in SH-SY5Y cells by addition of APO was studied. Measurement of the protease activity was conducted by calculating a relative specific activity by measuring fluorescence generated from degradation of a specific substrate (Suc-LLVY-AMC) using 20S Proteasome Assay Kit (BostonBiochem). Comparison between two groups was done by Student t-test.
molecule,measurement,setting,value
"CN1CCc2cccc3c2[C@H]1Cc1ccc(O)c(O)c1-3 [APO, apomorphine hydrochloride]",degradation of intracellularly accumulated Aβ42 after 90 minutes,[1],degradation after 90 minutes was enhanced
same,capacity of memory acquisition in swimming training (time lag in reaching the goal stand),3×Tg mouse [2],comparable to Non-Tg mice; also recorded: evidently superior to that of 3×Tg mice with no treatment; also recorded: comparable to non-transgenic mice
same,"capacity of memory for the goal stand position (loci of swimming), 48-hour probe test","3×Tg mouse [3]; 3×Tg cases (2 mice) in which APO injection was efficacious, hydrochloride",the memory retention of the goal stand position was improved; also recorded: markedly improved
same,capacity of learning after 3-day consecutive training (time for reaching the goal stand),"3×Tg mouse [3]; heterozygous 3×Tg, 6 month old, 5 mg/kg subcutaneous weekly for 4 weeks, n=4, hydrochloride, 5 mg/kg",a tendency of improvement in the capacity of memory and learning; also recorded: slightly higher capacity of learning after treatment
same,"frequency of crossing the goal stand, 48-hour probe test","3×Tg mouse [3]; heterozygous 3×Tg, 5 mg/kg s.c. weekly for 4 weeks, after vs before injection, p=0.03",increase in frequency of crossing the goal stand
same,"residential time (%) within ¼ block of the goal stand, 48-hour probe test","3×Tg mouse [3]; heterozygous 3×Tg, 5 mg/kg s.c. weekly for 4 weeks, after vs before injection, p=0.04",increase in residential time
same,"time lag in reaching the goal stand, 48-hour probe test","3×Tg mouse [3]; heterozygous 3×Tg, 5 mg/kg s.c. weekly for 4 weeks, after vs before injection, p=0.05",shortening of time lag in reaching the goal stand
same,p53 level increased by hydrogen peroxide,p53,inhibited
same,network of the neurite (beta-tubulin immunostaining),[4]; mouse primary neurons,protection and maintenance of the network
same,apoptosis inhibitory activity for oxidative stress (rate of cell survival),[4]; primary neurons from fetal mouse of 15 days old,also seen in primary neurons from mouse fetus
same,concentration at which the effect of APO was at the peak,"[4]; primary neurons from mouse fetus, rate of cell survival, thereafter declined",10 µM
same,change in intracellular Aβ40 with lapse of time,[5]; 10 μM APO added two hours before,degraded with lapse of time
same,degradation of intracellularly accumulated Aβ40 after 30 minutes,[5],degradation after 30 minutes was enhanced
same,"degradation of intracellularly accumulated Aβ40 inhibited by MG132, effect of adding APO","[5]; with MG132, 30 minutes, immunoblot",the degradation was recovered
same,cell survival (number of surviving cells and morphological features),"SH-SY5Y cells; 10 μM APO with 0, 1, 3 mM hydrogen peroxide, 24 hours, immunostaining",evident enhancement of cell survival
same,rate of cell survival,"SH-SY5Y cells; 10 μM APO, Cell Titer-Blue, p<0.0001",extremely improved
same,rate of cell survival,"SH-SY5Y cells; 24 hours, Cell Titer-Blue Assay Kit",recovered
same,fall-off of massive neurons,"3×Tg mouse [6]; 3×Tg mice at the stage of 6-month, after administration",not observed
same,intraneuronal accumulation of amyloid β proteins (4G8 immunostaining),"3×Tg mouse [6]; cerebral cortex and hippocampus CA1 region, 3×Tg mice of Example 6, vs saline, hydrochloride",evidently inhibited
same,intraneuronal accumulation of phosphorylated tau proteins (AT8 immunostaining),"3×Tg mouse [6]; cerebral cortex and hippocampus, 3×Tg mice of Example 6, vs saline, hydrochloride",the accumulation was inhibited
same,proteasome activity (relative specific activity),"proteasome; APO alone, hydrochloride",enhanced the proteasome activity; also recorded: increased
same,decreased proteasome activity at addition of oxidative stress,proteasome; oxidative stress plus APO,recovered
CC(C)C[C@@H](C=O)NC(=O)[C@H](CC(C)C)NC(=O)[C@H](CC(C)C)NC(=O)OCc1ccccc1 [MG132] (Cbz-Leu-Leu-Leu-aldehyde),degradation of intracellularly accumulated Aβ42 after 90 minutes,[1],degradation was inhibited
same,degradation of intracellularly accumulated Aβ40 after 30 minutes,[5],degradation was inhibited
"Aβ42: amyloid β protein of 42 residues; printed in b62 as the added agent, probably a misprint for APO","degradation of intracellularly accumulated Aβ42 inhibited by MG132, recovery","[1]; with MG132, 90 minutes",the degradation was recovered
